Results published in article PMC11775380, “Discovery of Novel Nav1.7-Selective Inhibitors with the 1H-Indole-3-Propionamide Scaffold for Effective Pain Relief” (Research, 2025).

Tests used:
[1] = system: native Ca2+ current (Cav channels) in DRG neurons; test: Voltage-clamp recording of native Ca2+ current in DRG neurons; format: cell-based; details: 10 μM; mouse DRG neurons
Protocol: To investigate the mechanism of action of WN2-R and facilitate animal model experiments, we used voltage-clamp recording to test the effects of WN2-R on the native Na^+-, K^+-, and Ca^2+-mediated currents in DRG neurons. […] Furthermore, the effects of WN2-R on membrane excitability were examined in small (<30 μm) DRG neurons from mice using current-clamp recordings.
DRG isolation and culture were performed according to our previous report. Briefly, C57BL/6 mice (weight 18 to 20 g, 6 to 8 weeks) were euthanized via cervical dislocation under anesthesia. Lumbar DRGs were isolated from the L4 to L5 segments of the lumbar spinal cord. The DRG neurons were subsequently dissociated through enzymatic digestion with collagenase (0.32 mg/ml) and trypsin (0.15 mg/ml) at 37 °C for 30 min, with intermittent shaking. After centrifugation at 800 rpm for 5 min at room temperature, the cells were seeded onto poly-L-lysine-coated coverslips and cultured in DMEM (Gibco) supplemented with 10% fetal bovine serum (Gibco). […]
For recording Nav currents of DRG neurons, the bath solution contains (in mM) 30 NaCl, 1 MgCl2, 1.8 CaCl2, 5 CsCl, 5 KCl, 25 D-glucose, 5 HEPES, 0.1 CdCl2, and TEA-Cl (pH 7.4 with NaOH), and the pipette solution contains (in mM) 135 CsCl, 10 NaCl, and 5 HEPES (pH 7.4 with CsOH). The Nav current program is recorded following the above method. […]

[2] = system: SNI neuropathic pain model in mice; test: Spared nerve injury (SNI) neuropathic pain model; format: in vivo, C57 mice
Text: Peripheral nerve injury models were developed to investigate the mechanisms of neuropathic pain. One such model, the spared nerve injury (SNI) neuropathic pain model in mice, involved ligating and transecting the […] and tibial nerves within the […] nerve, while leaving the sural nerve untouched. […] To evaluate the neuroanalgesic potential of WN2-R in this model, both i.g. and i.m. routes were used to evaluate the neuroanalgesic effect of WN2-R in this model (n = 5). […] In contrast, PF-05089771 reached its peak at 1 h (PWTs = 1.08 g) but then rapidly lost its efficacy, resembling the saline control group after 1 h. Throughout the experiment, the PWTs of the WN2-R group remained consistently higher than that of the PF-05089771 group (Fig. 6F and G). […] Subsequently, the efficacy of both drugs gradually declined, converging with the saline group after 3 h. Throughout the entire dosing period, the PWTs of the WN2-R group were slightly higher than that of the PF-05089771 group (Fig. 6M and N). […] To elucidate the time course of pain hypersensitivity induced by SNI, the behavioral responses (mechanical testing with von Frey fibers) were measured before surgery (baseline value) in C57 mice (5 female). Then, the mice underwent SNI surgery, which involved ligation and axotomy of the common peroneal and tibial nerves, while sparing the sural nerve. Sham-operated mice served as controls, with their nerves remaining intact. To confirm the presence of pain hypersensitivity in the SNI group, behavioral testing was carried out 14 days after SNI in each animal. Post drugs/saline administration, PWTs were measured at 0, 0.5, 1, 1.5, 2, 2.5, and 3 h for the i.g. route, and at 0, 0.5, 1, 2, 3, and 4 h for the i.m. route.

[3] = system: CFA inflammatory pain model of mice; test: CFA-induced inflammatory (chronic) pain model; format: in vivo, ICR mice; details: for Paw withdrawal threshold (PWT) at 1.5 h: 1.5 h post drug, 24 h after CFA
Protocol: The chronic pain model of mice was often used to simulate persistent pain in humans. In this model, chronic persistent pain was induced by injecting complete Freund’s adjuvant (CFA) into the right hind foot of mice. […] The chronic analgesic potential of WN2-R was evaluated using both i.g. and i.m. methods (n = 4). When administered by i.g., the PWTs of the WN2-R group and the PF-05089771 group reached their peak at 1.5 and 1 h after administration, respectively, and subsequently declined to the same level as the saline group at 2.5 h (Fig. 6D). […] When administered i.m., both the WN2-R and PF-05089771 groups reached peak PWTs at 1.5 h, and declined to the saline group level at 3 h (Fig. 6K). […] The mechanical allodynia of ICR mice (2 male and 2 female) was assessed prior to model construction using von Frey fibers according to the up–down method. Mice with paw withdraw thresholds (PWTs) remarkably deviating from the mean value were excluded from further experiments. Subsequently, 15 μl of CFA was unilaterally injected into the intraplantar surface of the right hind paw of each mice. After 24 h, the PWTs of the mice were assessed. During the i.g. administration of drugs or saline, PWTs were measured 0, 0.5, 1, 1.5, 2, and 2.5 h post drugs/saline administration. Similarly, during i.m. administration, PWTs were measured at 0, 0.5, 1, 1.5, 2, 2.5, and 3 h post drugs/saline administration.

With `Cc1ccc(Cn2cc([C@H](CC(=O)NCCN(C)C)c3ccc(F)cc3)c3ccccc32)cc1` [WN2-R] the “Effect on native Ca2+ current” value [1] was “almost no effect”, the “Duration of significant efficacy” value ([2]; i.g.) was “at least 2 h” and the “Paw withdrawal threshold (PWTs)” value ([2]; i.g., 1 h post drug application, 14 days after SNI) was 1.72 g. The “Time after which efficacy converged with the saline group” value ([2]; i.m.) was 3 h, the “Time of peak efficacy” value ([2]; i.m.) was 1 h and the “Paw withdrawal threshold (PWTs) at peak efficacy” value ([2]; i.m., 1 h post drug application, 14 days after SNI) was 1.39 g. The “Time at which PWT declined to the saline group level” value ([3]; i.g.) was 2.5 h, the “Time of peak PWT after administration” value ([3]; i.g.) was 1.5 h and the “Paw withdrawal threshold (PWT) at 1.5 h” value ([3]; i.g.) was 1.25 g. The “Time at which PWT declined to the saline group level” value ([3]; i.m.) was 3 h, the “Time of peak PWT after administration” value ([3]; i.m.) was 1.5 h and the “Paw withdrawal threshold (PWT) at 1.5 h” value ([3]; i.m.) was 1.17 g.
